# ChEMBL document CHEMBL1201862, “PubChem BioAssay data set” (2004)
#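 The compound was tested at five concentrations on cells cultured in 96-well plates, with a 48-hour exposure period. The concentration for 50% growth inhibition is given as GI50.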 The source made the active and inactive calls. Rule as the data show it: active = GI50 up to about 1.1 µM and inactive = higher.
# Experiments:
# Experiment in all cases: DTP human tumour cell line panel, 48 h
# SF-268 = test system: SF-268
# U-251 = test system: U-251
# OVCAR-3 = test system: OVCAR-3
# ACHN = test system: ACHN
# SK-OV-3 = test system: SK-OV-3
# HOP-62 = test system: HOP-62
# EKVX = test system: EKVX
# M14 = test system: M14
# 786-0 = test system: 786-0
# SNB-19 = test system: SNB-19
# COLO 205 = test system: COLO 205
# UO-31 = test system: UO-31
# HCT-116 = test system: HCT-116
# UACC-62 = test system: UACC-62
# MDA-MB-231 = test system: MDA-MB-231
# NCI/ADR-RES = test system: NCI/ADR-RES
# CAKI-1 = test system: CAKI-1
# OVCAR-5 = test system: OVCAR-5
# K562 = test system: K562
# NCI-H226 = test system: NCI-H226
# SW-620 = test system: SW-620
# MDA-MB-435 = test system: MDA-MB-435
# BT-549 = test system: BT-549
# SK-MEL-5 = test system: SK-MEL-5
# TK-10 = test system: TK-10
# OVCAR-8 = test system: OVCAR-8
# MOLT-4 = test system: MOLT-4
# MDA-N = test system: MDA-N
# KM12 = test system: KM12
# SF-295 = test system: SF-295
# CCRF-CEM = test system: CCRF-CEM
# NCI-H522 = test system: NCI-H522
# OVCAR-4 = test system: OVCAR-4
# RXF 393 = test system: RXF 393
# Hs-578T = test system: Hs-578T
# SNB-75 = test system: SNB-75
# SK-MEL-28 = test system: SK-MEL-28
# NCI-H23 = test system: NCI-H23
# HCT-15 = test system: HCT-15
# DU-145 = test system: DU-145
# NCI-H460 = test system: NCI-H460
# RPMI-8226 = test system: RPMI-8226
# HT-29 = test system: HT-29
# PC-3 = test system: PC-3
# SN12C = test system: SN12C
# SK-MEL-2 = test system: SK-MEL-2
# IGROV-1 = test system: IGROV-1
# UACC-257 = test system: UACC-257
# HL-60 = test system: HL-60
# A498 = test system: A498
# A549 = test system: A549
# Malme-3M = test system: Malme-3M
# MCF7 = test system: MCF7
# T47D = test system: T47D
# HOP-92 = test system: HOP-92
# HCC 2998 = test system: HCC 2998
# LOX IMVI = test system: LOX IMVI
# SF-539 = test system: SF-539
# SR = test system: SR
structure (smiles),measurement,setting,value
c1ccc2c(c1)N=C(NC1CCCCC1)CCN2,GI50,SF-268,> 100 µM (inactive)
same,GI50,U-251,> 100 µM (inactive)
same,GI50,OVCAR-3,> 100 µM (inactive)
same,GI50,ACHN,> 100 µM (inactive)
same,GI50,SK-OV-3,> 100 µM (inactive)
same,GI50,HOP-62,> 100 µM (inactive)
same,GI50,EKVX,> 100 µM (inactive)
same,GI50,M14,> 100 µM (inactive)
same,GI50,786-0,> 100 µM (inactive)
same,GI50,SNB-19,> 100 µM (inactive)
same,GI50,COLO 205,> 100 µM (inactive)
same,GI50,UO-31,> 100 µM (inactive)
same,GI50,HCT-116,> 100 µM (inactive)
same,GI50,UACC-62,> 100 µM (inactive)
same,GI50,MDA-MB-231,> 100 µM (inactive)
same,GI50,NCI/ADR-RES,> 100 µM (inactive)
same,GI50,CAKI-1,> 100 µM (inactive)
same,GI50,OVCAR-5,> 100 µM (inactive)
same,GI50,K562,81.3 µM (inactive)
same,GI50,NCI-H226,> 100 µM (inactive)
same,GI50,SW-620,> 100 µM (inactive)
same,GI50,MDA-MB-435,> 100 µM (inactive)
same,GI50,BT-549,> 100 µM (inactive)
same,GI50,SK-MEL-5,> 100 µM (inactive)
same,GI50,TK-10,> 100 µM (inactive)
same,GI50,OVCAR-8,> 100 µM (inactive)
same,GI50,MOLT-4,63.2 µM (inactive)
same,GI50,MDA-N,> 100 µM (inactive)
same,GI50,KM12,> 100 µM (inactive)
same,GI50,SF-295,> 100 µM (inactive)
same,GI50,CCRF-CEM,> 100 µM (inactive)
same,GI50,NCI-H522,> 100 µM (inactive)
same,GI50,OVCAR-4,> 100 µM (inactive)
same,GI50,RXF 393,> 100 µM (inactive)
same,GI50,Hs-578T,> 100 µM (inactive)
same,GI50,SNB-75,22 µM (inactive)
same,GI50,SK-MEL-28,> 100 µM (inactive)
same,GI50,NCI-H23,> 100 µM (inactive)
same,GI50,HCT-15,> 100 µM
same,GI50,DU-145,> 100 µM (inactive)
same,GI50,NCI-H460,> 100 µM (inactive)
same,GI50,RPMI-8226,> 100 µM (inactive)
same,GI50,HT-29,77.6 µM (inactive)
same,GI50,PC-3,> 100 µM (inactive)
same,GI50,SN12C,> 100 µM (inactive)
same,GI50,SK-MEL-2,> 100 µM (inactive)
same,GI50,IGROV-1,33.1 µM (inactive)
same,GI50,UACC-257,> 100 µM (inactive)
same,GI50,HL-60,> 100 µM (inactive)
same,GI50,A498,> 100 µM (inactive)
same,GI50,A549,> 100 µM (inactive)
same,GI50,Malme-3M,> 100 µM (inactive)
c1ccc(CNC2CC(NCc3ccccn3)CC(NCc3ccccn3)C2)nc1 (stereo unspecified),GI50,SF-268,5 µM (inactive)
same,GI50,OVCAR-3,4.08 µM (inactive)
same,GI50,ACHN,9.51 µM (inactive)
same,GI50,SK-OV-3,4.46 µM (inactive)
same,GI50,HOP-62,6.89 µM (inactive)
same,GI50,786-0,2.38 µM (inactive)
same,GI50,COLO 205,1.09 µM (active)
same,GI50,UO-31,> 25 µM (inactive)
same,GI50,HCT-116,3.1 µM (inactive)
same,GI50,MCF7,3.5 µM (inactive)
same,GI50,NCI-H226,3.32 µM (inactive)
same,GI50,SW-620,6.61 µM (inactive)
same,GI50,MDA-MB-435,4.5 µM (inactive)
same,GI50,BT-549,5.27 µM (inactive)
same,GI50,SK-MEL-5,3.54 µM (inactive)
same,GI50,TK-10,3.45 µM (inactive)
same,GI50,MOLT-4,3.39 µM (inactive)
same,GI50,MDA-N,4.47 µM (inactive)
same,GI50,KM12,2.7 µM (inactive)
same,GI50,SF-295,6.21 µM (inactive)
same,GI50,CCRF-CEM,2.61 µM (inactive)
same,GI50,NCI-H522,4.6 µM (inactive)
same,GI50,OVCAR-4,4.13 µM (inactive)
same,GI50,T47D,5.66 µM (inactive)
same,GI50,Hs-578T,7.66 µM (inactive)
same,GI50,HOP-92,4.67 µM (inactive)
same,GI50,SNB-75,4.27 µM (inactive)
same,GI50,SK-MEL-28,3.08 µM (inactive)
same,GI50,HCT-15,4.72 µM
same,GI50,DU-145,4.73 µM (inactive)
same,GI50,NCI-H460,5.15 µM (inactive)
same,GI50,SN12C,5.22 µM (inactive)
same,GI50,SK-MEL-2,5.11 µM (inactive)
same,GI50,IGROV-1,4.38 µM (inactive)
same,GI50,UACC-257,4.53 µM (inactive)
same,GI50,A498,3.05 µM (inactive)
same,GI50,A549,2.61 µM (inactive)
same,GI50,Malme-3M,3.52 µM (inactive)
NC(=O)C1Cc2cc3c(cc21)OCO3 (stereo unspecified),GI50,SF-268,> 100 µM (inactive)
same,GI50,OVCAR-3,> 100 µM (inactive)
same,GI50,ACHN,> 100 µM (inactive)
same,GI50,SK-OV-3,> 100 µM (inactive)
same,GI50,HOP-62,> 100 µM (inactive)
same,GI50,EKVX,> 100 µM (inactive)
same,GI50,M14,> 100 µM (inactive)
same,GI50,786-0,> 100 µM (inactive)
same,GI50,SNB-19,> 100 µM (inactive)
same,GI50,COLO 205,> 100 µM (inactive)
same,GI50,UO-31,> 100 µM (inactive)
same,GI50,HCT-116,> 100 µM (inactive)
same,GI50,UACC-62,> 100 µM (inactive)
same,GI50,MDA-MB-231,> 100 µM (inactive)
same,GI50,NCI/ADR-RES,> 100 µM (inactive)
same,GI50,CAKI-1,> 100 µM (inactive)
same,GI50,MCF7,> 100 µM (inactive)
same,GI50,HCC 2998,> 100 µM (inactive)
same,GI50,OVCAR-5,> 100 µM (inactive)
same,GI50,NCI-H226,> 100 µM (inactive)
same,GI50,LOX IMVI,> 100 µM (inactive)
same,GI50,SF-539,> 100 µM (inactive)
same,GI50,BT-549,> 100 µM (inactive)
same,GI50,SK-MEL-5,> 100 µM (inactive)
same,GI50,TK-10,> 100 µM (inactive)
same,GI50,OVCAR-8,> 100 µM (inactive)
same,GI50,MDA-N,> 100 µM (inactive)
same,GI50,KM12,> 100 µM (inactive)
same,GI50,SF-295,> 100 µM (inactive)
same,GI50,NCI-H522,> 100 µM (inactive)
same,GI50,RXF 393,> 100 µM (inactive)
same,GI50,Hs-578T,> 100 µM (inactive)
same,GI50,SNB-75,> 100 µM (inactive)
same,GI50,NCI-H23,> 100 µM (inactive)
same,GI50,HCT-15,> 100 µM
same,GI50,DU-145,> 100 µM (inactive)
same,GI50,NCI-H460,> 100 µM (inactive)
same,GI50,HT-29,> 100 µM (inactive)
same,GI50,PC-3,> 100 µM (inactive)
same,GI50,IGROV-1,> 100 µM (inactive)
same,GI50,UACC-257,> 100 µM (inactive)
same,GI50,A549,> 100 µM (inactive)
same,GI50,Malme-3M,> 100 µM (inactive)
O=S(=O)(O)c1cc(O)c2c(/N=C\c3ccccc3O)cc(S(=O)(=O)O)cc2c1,GI50,SF-268,> 100 µM (inactive)
same,GI50,U-251,> 100 µM (inactive)
same,GI50,OVCAR-3,> 100 µM (inactive)
same,GI50,ACHN,> 100 µM (inactive)
same,GI50,SK-OV-3,> 100 µM (inactive)
same,GI50,HOP-62,> 100 µM (inactive)
same,GI50,EKVX,> 100 µM (inactive)
same,GI50,M14,> 100 µM (inactive)
same,GI50,786-0,> 100 µM (inactive)
same,GI50,SNB-19,> 100 µM (inactive)
same,GI50,COLO 205,> 100 µM (inactive)
same,GI50,UO-31,> 100 µM (inactive)
same,GI50,HCT-116,> 100 µM (inactive)
same,GI50,UACC-62,> 100 µM (inactive)
same,GI50,MDA-MB-231,> 100 µM (inactive)
same,GI50,SR,> 100 µM (inactive)
same,GI50,NCI/ADR-RES,> 100 µM (inactive)
same,GI50,CAKI-1,> 100 µM (inactive)
same,GI50,MCF7,> 100 µM (inactive)
same,GI50,HCC 2998,> 100 µM (inactive)
same,GI50,OVCAR-5,> 100 µM (inactive)
same,GI50,K562,86.5 µM (inactive)
same,GI50,NCI-H226,> 100 µM (inactive)
same,GI50,LOX IMVI,> 100 µM (inactive)
same,GI50,SF-539,> 100 µM (inactive)
same,GI50,SW-620,> 100 µM (inactive)
same,GI50,MDA-MB-435,> 100 µM (inactive)
same,GI50,BT-549,> 100 µM (inactive)
same,GI50,SK-MEL-5,> 100 µM (inactive)
same,GI50,TK-10,> 100 µM (inactive)
same,GI50,OVCAR-8,> 100 µM (inactive)
same,GI50,MOLT-4,9.57 µM (inactive)
same,GI50,MDA-N,> 100 µM (inactive)
same,GI50,KM12,> 100 µM (inactive)
same,GI50,SF-295,> 100 µM (inactive)
same,GI50,CCRF-CEM,> 100 µM (inactive)
same,GI50,NCI-H522,> 100 µM (inactive)
same,GI50,OVCAR-4,> 100 µM (inactive)
same,GI50,RXF 393,> 100 µM (inactive)
same,GI50,T47D,82.6 µM (inactive)
same,GI50,HOP-92,> 100 µM (inactive)
same,GI50,SNB-75,93.5 µM (inactive)
same,GI50,SK-MEL-28,> 100 µM (inactive)
same,GI50,NCI-H23,> 100 µM (inactive)
same,GI50,HCT-15,> 100 µM
same,GI50,DU-145,> 100 µM (inactive)
same,GI50,NCI-H460,> 100 µM (inactive)
same,GI50,RPMI-8226,> 100 µM (inactive)
same,GI50,HT-29,> 100 µM (inactive)
same,GI50,PC-3,> 100 µM (inactive)
same,GI50,SN12C,> 100 µM (inactive)
same,GI50,SK-MEL-2,> 100 µM (inactive)
same,GI50,IGROV-1,> 100 µM (inactive)
same,GI50,UACC-257,> 100 µM (inactive)
same,GI50,HL-60,57.9 µM (inactive)
same,GI50,A498,> 100 µM (inactive)
same,GI50,A549,> 100 µM (inactive)
same,GI50,Malme-3M,> 100 µM (inactive)
